Measurements as given in US11447484B2, “Cyclic compound having dopamine D3 receptor antagonistic effect” (Shionogi & Co., Ltd., priority 2018, dated 2022).

Experiments:
[1] = target: human recombinant D3 receptor (Homo sapiens (Human), UniProt P35462); assay: Test of binding inhibition for dopamine D3 receptor; details: Jump-In HEK cell membranes, 2 nM [3H]-Methylspiperone, 120 min at 25° C.; read-out: hD3_Ki
Description: Test Example 1: Test of Binding Inhibition for Dopamine D3 Receptor
(§1) (Experimental Conditions)
Cell membranes: Jump-In HEK cell membranes expressing human recombinant D3 receptor (4 μg/well)
(§2) Buffer solution: 50 mM Tris-HCl (35409-45, Nacalai Tesque) (pH 7.4) containing 120 mM NaCl (31320-05, Nacalai Tesque), 1 mM MgCl2.6H2O (20909-55, Nacalai Tesque), 5 mM KCl (28514-75, Nacalai Tesque) and 2 mM CaCl2 (067-31, NAKARAI CHEMICALS, LTD.)
Radioligand: (final concentration) 2 nM [^3H]-Methylspiperone ([^3H—N-methyl-]-Methylspiperone, NET-856, 83.8 Ci/mmol, PerkinElmer)
Non-specific ligand: (final concentration) 10 μM Butaclamol [(+)-Butaclamol Hydrochloride, D033, Sigma]
(§3) SPA beads solution: SPA beads [WGA PVT SPA Scintillation Beads, RPNQ0001 (500 mg), RPNQ0060 (2 g), PerkinElmer] (0.2 mg/well)
(§4) Incubation time and temperature: 120 min at 25° C.
(§5) Butaclamol or the compounds of the present invention were weighed and DMSO was added to make a 10 mM solution. This solution was diluted to each concentration.
[^3H]-Methylspiperone was weighed and the buffer solution was added to make a 6 nM solution.
(§6) SPA beads were weighed and stirred in water to make a 50 mg/mL solution. Using this solution, a mixture with the cell membranes was prepared.
(§7) 225 nL of the solutions of the non-specific ligand or the compounds of the present invention at each concentration (in case of vehicle, final concentration 0.3% DMSO) were added in each well of a 384-well white/clear bottom microplate (3706, Corning). Jump-In HEK Cell membranes (final reaction amount: 4 μg protein/well), the SPA beads solution (final reaction amount: 0.2 mg/well) and the buffer solution were mixed and the mixed solution was left still for 1 hour or more at 4° C. Then, 50 μL of the mixture was added to each well of the plate. In addition, 25 μL of 6 nM [^3H]-Methylspiperone (final concentration: 2 nM) was added to each well. The plate was sealed by putting TopSeal-A 96/384 well (6050185, PerkinElmer, Inc.) on the top of the plate, mixed using stirring deaerator (Well Tornado, FK-62, Sakaki-elc.) and incubated for 120 min at 25° C. After incubation, the radioactivity of [^3H]-Methylspiperone which was bonded to D3 receptor was determined by liquid scintillation counter (1450 Microbeta, PerkinElmer) in each well. Non-specific binding was calculated based on the radioactivity of [^3H]-Methylspiperone in the presence of 10 μM non-labeled Butaclamol. The total binding was calculated using the radioactivity of [^3H]-Methylspiperone in the absence of the compounds of the present invention (vehicle). The Ki values were calculated from dose-response curves.
(§8) Binding activities of the compounds of the present invention were calculated from the following Binding Inhibition Rate (%): Inhibition Rate(%)=[1−(c−a)/(b−a)]×100 • a: Average cpm of non-specific binding • b: Average cpm of total binding • c: Cpm in the presence of each test compound

[2] = target: human recombinant D2 receptor (Homo sapiens (Human), UniProt P14416); assay: Test of binding inhibition for dopamine D2 receptor; details: Jump-In HEK cell membranes, 1.2 nM [3H]-Methylspiperone, 120 min at 25° C.; read-out: hD2_Ki
Sequence of human recombinant D2 receptor (P14416 whole entry): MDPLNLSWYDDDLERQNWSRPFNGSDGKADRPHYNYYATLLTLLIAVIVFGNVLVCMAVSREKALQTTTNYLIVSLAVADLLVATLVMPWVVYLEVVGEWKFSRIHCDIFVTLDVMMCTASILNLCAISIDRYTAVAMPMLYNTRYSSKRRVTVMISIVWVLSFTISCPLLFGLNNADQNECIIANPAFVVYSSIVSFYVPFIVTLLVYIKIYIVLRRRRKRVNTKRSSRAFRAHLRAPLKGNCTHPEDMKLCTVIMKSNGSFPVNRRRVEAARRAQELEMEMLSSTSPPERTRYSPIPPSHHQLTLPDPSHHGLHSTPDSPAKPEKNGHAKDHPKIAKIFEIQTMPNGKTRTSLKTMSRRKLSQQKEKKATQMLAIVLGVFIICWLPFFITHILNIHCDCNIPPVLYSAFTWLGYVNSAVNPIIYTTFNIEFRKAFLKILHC
Description: Test Example 2: Test of Binding Inhibition for Dopamine D2 Receptor
as §1
Cell membranes: Jump-In HEK cell membranes expressing human recombinant D2 receptor (2 μg/well)
as §2
Radioligand: (final concentration) 1.2 nM [^3H]-Methylspiperone ([^3H—N-methyl-]-Methylspiperone, NET-856, 83.8 Ci/mmol, PerkinElmer)
Non-specific ligand: (final concentration) 10 μM Butaclamol [(+)-Butaclamol Hydrochloride, D033; Sigma]
as §3, §4, §5
[^3H]-Methylspiperone was weighed and the buffer solution was added to make a 3.6 nM solution.
as §6
as §7, with “amount: 2” for “amount: 4”, “SPA bead” for “SPA beads”, “of 3.6” for “of 6”, “concentration: 1.2” for “concentration: 2”, “(6050185, PerkinElmer)” for “(6050185, PerkinElmer, Inc.)”, “to D2” for “to D3”
as §8

[3] = target: P-gp (human MDR1-expressing cells) (Homo sapiens (Human), UniProt P08183); assay: P-gp substrate test; type: in vitro ADME; details: efflux ratio (B→A/A→B) of MDR1-expressing cells compared with parent cells, Transwell monolayer
Sequence of P-gp (human MDR1-expressing cells) (P08183 whole entry): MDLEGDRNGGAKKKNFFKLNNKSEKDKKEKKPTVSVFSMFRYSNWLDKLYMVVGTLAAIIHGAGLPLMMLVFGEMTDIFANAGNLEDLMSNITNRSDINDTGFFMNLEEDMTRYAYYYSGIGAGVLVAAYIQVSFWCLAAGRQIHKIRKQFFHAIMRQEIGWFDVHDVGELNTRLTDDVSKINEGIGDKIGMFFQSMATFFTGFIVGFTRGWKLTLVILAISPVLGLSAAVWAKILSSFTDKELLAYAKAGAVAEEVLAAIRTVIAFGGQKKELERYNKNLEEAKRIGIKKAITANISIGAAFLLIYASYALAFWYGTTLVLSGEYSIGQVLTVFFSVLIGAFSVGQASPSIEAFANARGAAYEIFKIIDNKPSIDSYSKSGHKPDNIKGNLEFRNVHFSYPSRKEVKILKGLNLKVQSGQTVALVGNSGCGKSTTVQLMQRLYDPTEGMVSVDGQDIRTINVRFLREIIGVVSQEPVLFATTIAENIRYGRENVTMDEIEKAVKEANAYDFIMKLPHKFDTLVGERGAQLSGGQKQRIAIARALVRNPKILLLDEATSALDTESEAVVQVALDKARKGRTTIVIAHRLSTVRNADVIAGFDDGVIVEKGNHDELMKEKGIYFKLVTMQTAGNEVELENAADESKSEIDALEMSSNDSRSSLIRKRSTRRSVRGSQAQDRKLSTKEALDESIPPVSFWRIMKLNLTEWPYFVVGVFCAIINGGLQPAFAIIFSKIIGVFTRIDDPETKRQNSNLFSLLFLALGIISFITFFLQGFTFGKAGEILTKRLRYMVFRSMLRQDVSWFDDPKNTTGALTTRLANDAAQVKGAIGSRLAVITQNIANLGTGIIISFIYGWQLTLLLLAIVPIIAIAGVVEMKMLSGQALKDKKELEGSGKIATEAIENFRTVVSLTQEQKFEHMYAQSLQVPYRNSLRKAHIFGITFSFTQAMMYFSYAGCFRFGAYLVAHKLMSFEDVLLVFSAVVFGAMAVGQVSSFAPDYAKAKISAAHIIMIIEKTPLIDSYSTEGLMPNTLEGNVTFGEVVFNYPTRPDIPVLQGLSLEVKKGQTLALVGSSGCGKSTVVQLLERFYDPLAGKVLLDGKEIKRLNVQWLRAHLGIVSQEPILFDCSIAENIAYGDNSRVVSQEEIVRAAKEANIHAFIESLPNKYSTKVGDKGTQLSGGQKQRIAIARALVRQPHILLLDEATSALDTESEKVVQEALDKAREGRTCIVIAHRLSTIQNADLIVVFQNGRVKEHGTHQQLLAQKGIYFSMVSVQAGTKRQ
Description: Test Example 14: P-gp Substrate Test
The compound of the present invention was added to one side of Transwell (registered trademark, CORNING) where human MDR1-expressing cells or parent cells have been monolayer-cultured. The cells were reacted for a constant time. The membrane permeability coefficients from the apical side toward the basolateral side (A→B) and from the basolateral side toward the apical side (B→A) were calculated for the MDR1-expressing cells or the parent cells, and the efflux ratio (ER; ratio of the membrane permeability coefficients of B→A and A→B) values of the MDR1-expressing cells and the parent cells were calculated. The efflux ratio (ER) values of the MDR1-expressing cells and the parent cells were compared to confirm whether or not the compound of the present invention would be a P-gp substrate.

Sequence of human recombinant D3 receptor (P35462 whole entry): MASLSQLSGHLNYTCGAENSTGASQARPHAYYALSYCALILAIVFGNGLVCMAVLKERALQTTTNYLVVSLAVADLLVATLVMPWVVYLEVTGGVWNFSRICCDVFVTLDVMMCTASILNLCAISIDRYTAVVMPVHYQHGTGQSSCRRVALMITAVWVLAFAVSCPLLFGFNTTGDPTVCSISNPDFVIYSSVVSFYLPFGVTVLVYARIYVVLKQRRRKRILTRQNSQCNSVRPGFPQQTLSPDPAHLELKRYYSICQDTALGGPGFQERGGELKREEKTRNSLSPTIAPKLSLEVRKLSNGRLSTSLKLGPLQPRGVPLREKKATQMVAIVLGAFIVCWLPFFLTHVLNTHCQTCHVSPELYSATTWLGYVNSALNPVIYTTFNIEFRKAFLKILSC

Row | SMILES | Ki [1] | Ki [2] | P-gp ER ratio [3]
1 | CCc1cc(C23CC2CN(CC[C@H]2CC[C@H](NC(=O)c4cccc5nn(C)cc45)CC2)C3)no1 (stereo partly drawn) [Compound I-034] | 0.71 nM | 730 nM | 1.3
2 | Cc1ncc(OCC(=O)N[C@H]2CC[C@H](CCN3C[C@@H]4C[C@]4(c4cc(C(C)(F)F)on4)C3)CC2)cn1 [Compound I-046] | 0.2 nM | 330 nM | 1.9
3 | CCc1cc([C@]23C[C@H]2CN(CC[C@H]2CC[C@H](NC(=O)Cc4cnc(C)o4)CC2)C3)no1 [Compound I-052] | 0.58 nM | 920 nM | 2.4
4 | CCc1cc([C@]23C[C@H]2CN(CC[C@H]2CC[C@H](NC(=O)Cc4cnn(C)n4)CC2)C3)no1 [Compound I-053] | 0.48 nM | 1100 nM | 1.9
